Measurements taken from patent US11931431B2, “PSMA-targeted radiopharmaceutical for diagnosing and treating prostate cancer” (FUTURECHEM CO., LTD, priority 2018, dated 2024).
Each block holds one compound with its values, some of them ahead of it.

Columns and labels:
[1] = Measurement of lipophilicity (log P), n-octanol/PBS; format: physicochemical; settings: mean of 3
Protocol: Each of the [^68Ga]1 compounds (1˜2 mci) synthesized in Example 14 was transferred into a vial, and the solvent was removed, to which 1 mL of n-octanol and 1 mL of PBS were added, and the lid was well closed, followed by mixing with a vortex for 1 minute. After the layers were separated, 0.1 mL was taken from each layer and the radiation dose was measured. The radiation dose was measured by repeating 3 times, and the mean value was obtained.

[2] = test system: PSMA^+ PC-3 PIP tumors; experiment: MicroPET/CT imaging of mice transplanted with prostate cancer cell lines; format: in vivo, nude mouse
Protocol: A tumor model was prepared by subcutaneously injecting PSMA^+ PC-3 PIP cells (a human prostate cancer cell line) to the right side of the nude mouse hind leg. Each of the ^68Ga-labeled compounds [^68Ga]1e, [^68Ga]1g, [^68Ga]1h and [^68Ga]1k was intravenously injected with 5.5 to 6.5 MBq (148-175 μCi/200 μL), and PET/CT images were obtained using small animal INVEON PET/CT (Siemens medical solutions, Knoxville, USA) for 60 minutes. After 150 minutes, 270 minutes, and 390 minutes, PET/CT images were also obtained for 30 minutes. The obtained PET/CT image results were quantitatively analyzed using Inveon™ Research Workplace (IRW).
FIGS. 1, 2, 3, and 4 are graphs showing the quantitative analysis results of MicorPET/CT images for [^68Ga]1e, [^68Ga]1g, [^68Ga]1h, and [^68Ga]1k in % injected dose (ID)/g, and summarized in Tables 3, 4, 5, and 6, respectively.

[3] = test system: PSMA^+ PC-3 PIP tumors; experiment: Biodistribution test with mice transplanted with prostate cancer cell lines (gamma counter); format: in vivo, nude mouse; settings: 5 hours after injection
Protocol: After 270 minutes of [^68Ga]1e and [^68Ga]1g injection, microPET/CT images were obtained for 30 minutes, and then each organ (blood, muscle, fat, heart, lung, liver, spleen, stomach, intestine, kidney, bone and tumor) was extracted and the radioactivity thereof was measured using a gamma counter.

[4] = biological target: PSMA (Homo sapiens, UniProt Q04609); settings: cited from earlier work
Chain of PSMA (Q04609 whole entry): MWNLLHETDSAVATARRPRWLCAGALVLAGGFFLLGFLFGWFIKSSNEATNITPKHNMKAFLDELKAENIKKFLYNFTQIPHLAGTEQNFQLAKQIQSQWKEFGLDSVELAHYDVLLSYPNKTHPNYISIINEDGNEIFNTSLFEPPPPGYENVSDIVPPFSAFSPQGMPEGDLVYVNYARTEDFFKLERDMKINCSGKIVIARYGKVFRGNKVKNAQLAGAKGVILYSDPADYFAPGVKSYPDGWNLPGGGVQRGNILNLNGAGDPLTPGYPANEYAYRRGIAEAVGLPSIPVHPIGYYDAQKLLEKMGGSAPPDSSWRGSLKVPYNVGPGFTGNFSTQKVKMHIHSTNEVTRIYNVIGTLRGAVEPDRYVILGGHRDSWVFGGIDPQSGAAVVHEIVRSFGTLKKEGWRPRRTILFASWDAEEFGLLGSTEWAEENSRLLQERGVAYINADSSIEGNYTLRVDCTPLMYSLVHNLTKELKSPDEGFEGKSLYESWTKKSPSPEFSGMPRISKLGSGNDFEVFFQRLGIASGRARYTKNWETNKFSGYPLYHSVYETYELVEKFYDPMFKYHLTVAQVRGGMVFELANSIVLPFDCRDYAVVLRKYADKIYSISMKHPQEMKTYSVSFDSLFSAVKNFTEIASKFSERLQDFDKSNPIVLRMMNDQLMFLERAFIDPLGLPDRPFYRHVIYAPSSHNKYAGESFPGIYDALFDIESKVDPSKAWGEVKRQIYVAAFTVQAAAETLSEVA

logP [1]: −2.42
intake of mouse organ: Bladder ([2]; 10 min after injection): 2.28 ± 0.11 % ID/g
intake of mouse organ: Kidney ([2]; 10 min after injection): 16.40 ± 0.10 % ID/g
intake of mouse organ: Liver ([2]; 10 min after injection): 9.55 ± 2.22 % ID/g
intake of mouse organ: Muscle ([2]; 10 min after injection): 1.49 ± 1.64 % ID/g
intake of mouse organ: Tumor (PIP) ([2]; 10 min after injection): 2.18 ± 0.63 % ID/g
intake of mouse organ: Bladder ([2]; 20 min after injection): 6.98 ± 2.51 % ID/g
intake of mouse organ: Kidney ([2]; 20 min after injection): 19.80 ± 0.73 % ID/g
intake of mouse organ: Liver ([2]; 20 min after injection): 7.26 ± 1.06 % ID/g
intake of mouse organ: Muscle ([2]; 20 min after injection): 1.88 ± 2.00 % ID/g
intake of mouse organ: Tumor (PIP) ([2]; 20 min after injection): 4.42 ± 1.50 % ID/g
intake of mouse organ: Bladder ([2]; 30 min after injection): 13.51 ± 5.83 % ID/g
intake of mouse organ: Kidney ([2]; 30 min after injection): 21.18 ± 2.17 % ID/g
intake of mouse organ: Liver ([2]; 30 min after injection): 6.10 ± 0.50 % ID/g
intake of mouse organ: Muscle ([2]; 30 min after injection): 1.69 ± 1.78 % ID/g
intake of mouse organ: Tumor (PIP) ([2]; 30 min after injection): 5.43 ± 1.94 % ID/g
intake of mouse organ: Bladder ([2]; 40 min after injection): 18.89 ± 8.84 % ID/g
intake of mouse organ: Kidney ([2]; 40 min after injection): 22.74 ± 3.48 % ID/g
intake of mouse organ: Liver ([2]; 40 min after injection): 5.38 ± 0.22 % ID/g
intake of mouse organ: Muscle ([2]; 40 min after injection): 1.61 ± 1.69 % ID/g
intake of mouse organ: Tumor (PIP) ([2]; 40 min after injection): 6.43 ± 2.32 % ID/g
intake of mouse organ: Bladder ([2]; 50 min after injection): 22.76 ± 10.86 % ID/g
intake of mouse organ: Kidney ([2]; 50 min after injection): 24.20 ± 4.60 % ID/g
intake of mouse organ: Liver ([2]; 50 min after injection): 4.75 ± 0.07 % ID/g
intake of mouse organ: Muscle ([2]; 50 min after injection): 1.54 ± 1.62 % ID/g
intake of mouse organ: Tumor (PIP) ([2]; 50 min after injection): 7.33 ± 2.76 % ID/g
intake of mouse organ: Bladder ([2]; 60 min after injection): 24.74 ± 11.23 % ID/g
intake of mouse organ: Kidney ([2]; 60 min after injection): 25.78 ± 4.72 % ID/g
intake of mouse organ: Liver ([2]; 60 min after injection): 4.41 ± 0.03 % ID/g
intake of mouse organ: Muscle ([2]; 60 min after injection): 1.32 ± 1.33 % ID/g
intake of mouse organ: Tumor (PIP) ([2]; 60 min after injection): 8.29 ± 2.99 % ID/g
intake of mouse organ: Bladder ([2]; 150 min after injection): 42.3 ± 41.58 % ID/g
intake of mouse organ: Kidney ([2]; 150 min after injection): 15.75 ± 11.53 % ID/g
intake of mouse organ: Liver ([2]; 150 min after injection): 0.45 ± 0.11 % ID/g
intake of mouse organ: Muscle ([2]; 150 min after injection): 0.21 ± 0.03 % ID/g
intake of mouse organ: Tumor (PIP) ([2]; 150 min after injection): 11.4 ± 5.23 % ID/g
intake of mouse organ: Bladder ([2]; 270 min after injection): 12.05 ± 2.76 % ID/g
intake of mouse organ: Kidney ([2]; 270 min after injection): 12.45 ± 9.69 % ID/g
intake of mouse organ: Liver ([2]; 270 min after injection): 0.22 ± 0.01 % ID/g
intake of mouse organ: Muscle ([2]; 270 min after injection): 0.06 ± 0.02 % ID/g
intake of mouse organ: Tumor (PIP) ([2]; 270 min after injection): 13.00±4.95 % ID/g
tumor intake increase compared to [^68Ga]1e ([2]; 270 minutes): about 3 times
excretion, in words ([2]; MicroPET/CT): rapidly excreted out of the body
tumor intake over time, in words ([2]; MicroPET/CT): tumor intake was increased over time
tumor intake rate, times higher than that of [^68Ga]1e [3]: about 1.4 times
Radioactivity in mouse organ: Blood ([3]; gamma counter): 0.02 ± 0.03 % ID/g
Radioactivity in mouse organ: Bone ([3]; gamma counter): 0.01 ± 0.01 % ID/g
Radioactivity in mouse organ: Fat ([3]; gamma counter): 0.11 ± 0.15 % ID/g
Radioactivity in mouse organ: Heart ([3]; gamma counter): 0.02 ± 0.01 % ID/g
Radioactivity in mouse organ: Intestine ([3]; gamma counter): 0.09 ± 0.08 % ID/g
Radioactivity in mouse organ: Kidney ([3]; gamma counter): 9.15 ± 11.26 % ID/g
Radioactivity in mouse organ: Liver ([3]; gamma counter): 0.03 ± 0.01 % ID/g
Radioactivity in mouse organ: Lung ([3]; gamma counter): 0.07 ± 0.07 % ID/g
Radioactivity in mouse organ: Muscle ([3]; gamma counter): 0.01 ± 0.00 % ID/g
Radioactivity in mouse organ: Spleen ([3]; gamma counter): 0.20 ± 0.27 % ID/g
Radioactivity in mouse organ: Stomach ([3]; gamma counter): 0.02 ± 0.02 % ID/g
Structure (SMILES): Cc1ccc(CCCC(=O)NCCCCC(NC(=O)CN2CCN3CCN4CCN(CC2)CC(=O)[O][68Ga]([O]C(=O)C3)[O]C(=O)C4)C(=O)NCCOCCOCC(=O)N(CCCCC(NC(=O)NC(CCC(=O)O)C(=O)O)C(=O)O)CC(=O)O)cc1 (stereo not shown) [[^68Ga]1g]
residence time in the blood, in words ([2]; MicroPET/CT): residence time in the blood was increased

Structure (SMILES): O=C(O)CC[C@H](NC(=O)N[C@@H](CCCCNC(=O)Nc1ccc([125I])cc1)C(=O)O)C(=O)O [[^125I]30]
Kd [4]: 0.13 nM
